Experimental findings from patent US20050148616A1, “Inhibitor of TNF-alpha and IL-1beta production” (priority 2003, published 2005) are described below.

The test system of one assay is TNF-α. Nature of the assay: LPS-induced TNF-α production in human normal PBMCs (ELISA). The class given is cell-based. The protocol:
(§1) PBMCs were isolated from fresh blood using a Ficoll-Paque Plus reagent (Amersham Bioscience) according to the protocol recommended by the manufacturer. The cells were suspended in a RPMI 1640 medium containing 10% FBS at a concentration of 1×10^5 cells/ml and seeded in a 96-well plate (1×10^4 cells total in each well). Each reaction was carried out in three wells.
(§2) 10 μl of pseudolycorine hydrochloride in DMSO was added to wells to obtain the final concentrations at 0.1, 0.3, 1, 3, 10, 30, and 100 μg/ml. In a positive control, dexamethason (DEX), an anti-inflammatory agent, instead of pseudolycorine hydrochloride, was added (final concentration 10 μM). In a negative control, 10 μl of the medium, instead of pseudolycorine hydrochloride, was added. The plate was placed in a 5% CO2 incubator at 37° C. for 15 minutes. After 10 μl aliquots of 100 μg/ml of LPS were added to all wells except for the negative control, the plate was placed in a 5% CO2 incubator at 37° C. overnight.
(§3) The plate was spun at 1000 rpm for 15 minutes and the supernatants were collected. The concentrations of TNF-α and IL-1β were measured by the TNF-α ELISA (Enzyme Linked Immunosorbent Assay) Kit and IL-1β ELISA Kit (Jingmei Bioengineer Technology). The inhibition ratios of TNF-α and IL-1β were calculated as follows: TNF-α Inhibition Ratio (%)=[TNF-α]control−[TNF-α]PHCl/[TNF-α]control×100% IL-1β Inhibition Ratio (%)=[IL-1β]control−[IL-1β]PHCl/[IL-1β]control×100% where [TNF-α]PHCl is the concentration of TNF-α in PBMCs treated with pseudolycorine hydrochloride and LPS, [TNF-α]control is the concentration of TNF-α in PBMCs treated with LPS and the medium, [IL-1β]PHCl is the concentration of IL-1β in PBMCs treated with pseudolycorine hydrochloride and LPS, and [IL-1β]control is the concentration of IL-1β in PBMCs treated with LPS and the medium.

A further assay has as its system IL-1β. Nature of the assay: LPS-induced IL-1β production in human normal PBMCs (ELISA). The class given is cell-based. The protocol: as §1, §2, §3
On the technique in general: An ELISA detects its analyte on a solid surface through an enzyme-linked reagent.

Where [1] appears, read: compared with dexamethason (DEX) at 10 μM, LPS-stimulated human PBMCs.

Counter-ions that a name gives are not always drawn. Bounds are passed on as bounds.

`COc1cc2c(cc1O)[C@@H]1[C@H](O)[C@@H](O)C=C3CCN(C2)[C@H]31` [pseudolycorine hydrochloride]: the “inhibition of expression of TNF-α, concentration dependence” value in the assay on TNF-α (0.1-100 μg/ml, FIG. 3) was “concentration-dependent manner”. Also, the “concentration at which expression of TNF-α was inhibited” value in the assay on TNF-α (LPS-stimulated human PBMCs, overnight, ELISA of supernatant, FIG. 1) was ≥ 0.3 µg/mL. In addition, the “concentration at which expression of TNF-α was inhibited more effectively than DEX” value with TNF-α (setting [1]) is ≥ 3 µg/mL. The “inhibition of expression of IL-1β, concentration dependence” value in the assay with IL-1β (0.1-100 μg/ml, FIG. 4) was “concentration-dependent manner”. Further, the “concentration at which expression of IL-1β was inhibited” value with IL-1β (LPS-stimulated human PBMCs, overnight, ELISA of supernatant, FIG. 2) was ≥ 1 µg/mL. Besides, the “concentration at which expression of IL-1β was inhibited more effectively than DEX” value in the assay with IL-1β (setting [1]) is ≥ 10 µg/mL.
